Drawing on US7084141B2, “Inhibitors of macrophase migration inhibitory factor and methods for identifying the same” (Avanir Pharmaceuticals, priority 2001, dated 2006), this text covers EC50 for two compounds.

This assay has as its target T1, MIF produced by THP-1 cells (Homo sapiens, UniProt P14174).
T1 construct: a test cell may express the MIF naturally (e.g., THP-1 cells); endogenous in cells; host or cells: THP-1 cells stimulated with LPS
T1 sequence (P14174 2-115 limits assumed): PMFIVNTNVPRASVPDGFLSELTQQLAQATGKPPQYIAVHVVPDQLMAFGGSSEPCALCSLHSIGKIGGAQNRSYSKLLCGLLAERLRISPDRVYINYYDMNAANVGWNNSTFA
The assay is described as follows: ELISA of immunoreactive MIF from LPS stimulated THP-1 cells treated with compound. Type of assay: cell-based. The settings on record: LPS stimulated THP-1 cells, incubated overnight; read-out: ED50, inhibition of the ability of the antibody to recognize MIF (ELISA). How it is done:
Alternatively, ELISA may be preferred to detect and quantify the amount of MIF in cell supernatants. ELISA is preferred for detection in high throughput screening. Briefly, 96-well plates are coated with an anti-MIF antibody or anti-tag antibody, washed, and blocked with 2% BSA. Cell supernatant is then added to the wells. Following incubation and washing, a second antibody (e.g., to MIF) is added. The second antibody may be coupled to a label or detecting reagent, such as an enzyme or to biotin. Following further incubation, a developing reagent is added and the amount of MIF determined using an ELISA plate reader. The developing reagent is a substrate for the enzyme coupled to the second antibody (typically an anti-isotype antibody) or for the enzyme coupled to streptavidin. Suitable enzymes are well known in the art and include horseradish peroxidase, which acts upon a substrate (e.g., ABTS) resulting in a colorimetric reaction. It is recognized that rather than using a second antibody coupled to an enzyme, the anti-MIF antibody may be directly coupled to the horseradish peroxidase, or other equivalent detection reagent. If desired, cell supernatants may be concentrated to raise the detection level. Further, detection methods, such as ELISA and the like may be employed to monitor intracellular as well as extracellular levels of MIF. When intracellular levels are desired, a cell lysate is preferred. When extracellular levels are desired, media can be screened.
In another experiment (FIG. 2), varying concentrations of five different inhibitor analogs were added to LPS stimulated THP-1 cells and allowed to incubate overnight. The following day the amount of immunoreactive MIF detected was evaluated by ELISA. Compound 7e inhibited the ability of the antibody to recognize MIF in a dose dependent fashion with an ED50 of 2 μM, similar to the response obtained with analogs compound 7b and compound 7d.
In a further experiment (FIG. 3), the ability of compound 7e to decrease the immunoreactivity of MIF produced by THP-1 cells was determined. THP-1 cells were treated with 10 μg/ml of LPS and 10 μM of compound 7e was added at various times post-LPS stimulation and immunoreactivity monitored with an anti-MIF monoclonal. […] Thus, this experiment measures the activity of compounds or buffer alone controls on MIF detection when the compounds are initially added at various times to cell cultures and then the corresponding conditioned media samples are processed in a time dependent fashion thereafter.

With `CCOC(=O)c1c(N2CCN(C(=O)c3ccccc3)CC2)c2ccccc2n(C)c1=O` [compound 7d], the EC50 was about 2000 nM. Regarding `Cn1c(=O)c([N+](=O)[O-])c(N2CCN(C(=O)c3ccccc3)CC2)c2ccccc21` [compound 7b], the EC50 is about 2000 nM.
